Where a name gives a salt, the structure may show the parent alone. Each block holds one compound with its values, some of them ahead of it.
Legend:
[1] = stated in the description; cited from earlier work
[2] = Solubility measurements of UV filter in emollients; type: physicochemical; settings: 25° C., seven days
Description: The vial is placed in a thermostated water bath (25° C.) and the blend is stirred for seven days. If the tested UV-filter is fully soluble, additional filter is added until precipitation is observed. After seven days, the sample is centrifuged for 30 minutes at 13000 rpm. If the supernatant is turbid, it is filtered through a 0.2 μm non steril Membrex 25 PET filter.

[3] = Measurement of interfacial tension (polarity index) of emollients; type: physicochemical; settings: Tensimat Densimat TD2000
Description: The term “polarity index” refers to non-polar or polar oils. Non-polar oils are mainly based on hydrocarbons and lack an electronegative element, such as oxygen. In contrast, polar oils contain heteroatoms that differ in electronegativity, which results in a dipole moment. However, such oils are still insoluble in water, i.e. hydrophob. The polarity index can be determined by measuring the interfacial tension between the respective oil and water.
Interfacial tension of the respective emollients as listed below was measured using a Tensimat Densimat TD2000.

polarity index [3]: 19 mN/m
SMILES: CC(C)OC(=O)CCCCCCCCC(=O)OC(C)C [diisopropyl sebacate]

polarity index [3]: 19 mN/m
SMILES: O=C(OCCc1ccccc1)c1ccccc1 [phenethyl benzoate]

polarity index [3]: 10 mN/m
SMILES: CCCCOC(=O)CC(O)(CC(=O)OCCCC)C(=O)OCCCC [tributyl citrate]

polarity index [3]: 7 mN/m
SMILES: CCOC(=O)CC(O)(CC(=O)OCC)C(=O)OCC [triethyl citrate]

Continued, compound first:

SMILES: COc1ccc(C(=O)CC(=O)c2ccc(C(C)(C)C)cc2)cc1 [BMDBM, 1-(4-(1,1-dimethylethyl)phenyl)-3-(4-methoxyphenyl)propane-1,3-dione]
absorption maximum [1]: 357 nm

SMILES: CCCCCCOC(=O)c1ccccc1C(=O)c1ccc(N(CC)CC)cc1O [DHHB, hexyl 2-[4-(diethylamino)-2-hydroxybenzoyl]benzoate]
solubility ([2]; in C12-15 alkyl benzoate): 22%
solubility ([2]; in butylene glycol dicaprylate/dicaprate): 23%
solubility ([2]; in caprylic capric triglyceride): 14%
solubility ([2]; in cyclomethicone): <1%
solubility ([2]; in dibutyl adipate): 31%
solubility ([2]; in diisopropyl adipate): 21%
solubility ([2]; in diisopropyl sebacate): 41%
solubility ([2]; in hydrogenated polyisobutene): <1%
solubility ([2]; in mineral oil): <1%
solubility ([2]; in octyldodecanol): 2.5%
solubility ([2]; in phenethyl benzoate): 57%
solubility ([2]; in propylene glycol dicaprylate/dicaprate): 22%
solubility ([2]; in tributyl citrate): 29.4%
solubility ([2]; in triethyl citrate): 29%
absorption maximum [1]: 354 nm

SMILES: C[Si]1(C)O[Si](C)(C)O[Si](C)(C)O[Si](C)(C)O[Si](C)(C)O1 [cyclopentasiloxane]
polarity index [3]: 32 mN/m

SMILES: CCCCOC(=O)CCCCC(=O)OCCCC [dibutyl adipate]
polarity index [3]: 14 mN/m

SMILES: CCCCC(CC)COC(=O)c1ccc(Nc2nc(Nc3ccc(C(=O)NC(C)(C)C)cc3)nc(Nc3ccc(C(=O)OCC(CC)CCCC)cc3)n2)cc1 (centres unmarked) [diethylhexyl-butamidotriazone, 4,4′-[[6-[[4-[[(1,1-dimethylethyl)amino]carbonyl]phenyl]amino]-1,3,5-triazin-2,4-diyl]diimino]bis-benzoic acid-bis(2-ethylhexyl)ester]
absorption maximum [1]: 310 nm

SMILES: CC(C)OC(=O)CCCCC(=O)OC(C)C [diisopropyl adipate]
polarity index [3]: 12 mN/m

SMILES: CCCCC(CC)COC(=O)/C=C/c1ccc(OC)cc1 (centres unmarked) [ethylhexyl methoxy cinnamate, 2-Ethylhexyl-(2E)-3-(4-methoxyphenyl)acrylate]
absorption maximum [1]: 310 nm

SMILES: CCCCCCCCCCC(CO)CCCCCCCC (centres unmarked) [octyldodecanol]
polarity index [3]: 25 mN/m

From patent publication US12246082B2, “Efficient sunscreen compositions with diethylamino hydroxybenzoyl hexyl benzoate and butyl methoxydibenzoylmethane free of octocrylene” (BASF SE, priority 2019, dated 2025)
